Experimental data taken from PubChem BioAssay AID248 (DTP/NCI, 2004).
“And” between values parts separate entries of the source, which are not always exact repeats. Equal values may be shown once. Toxic doses and inconclusive results are not listed. No stated cut-off is given here; in the data, active means T/C of 150% or more; inactive means T/C below 125%.

Tested on: L1210 leukemia ip in BDF1 mice, survival T/C
Test: NCI In Vivo Anticancer Drug Screen. Data for tumor model L1210 Leukemia (intraperitoneal) in B6D2F1 (BDF1) mice
Details: endpoint: mean survival time, higher = longer survival
Procedure, shortened: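 Tumor was transplanted into mice, which were then dosed with test compound or vehicle alone. Survival was recorded for each group, and the treated figure was expressed relative to the control figure.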

[1] = dose: 100.0 mg/kg/injection, schedule: Q01DX001 (ip), vehicle: saline with Tween-80
[2] = dose: 200.0 mg/kg/injection, schedule: Q01DX001 (ip), vehicle: saline with Tween-80
[3] = dose: 400.0 mg/kg/injection, schedule: Q01DX001 (ip), vehicle: saline with Tween-80
[4] = dose: 100.0 mg/kg/injection, schedule: Q01DX009 (ip), vehicle: saline with Tween-80
[5] = dose: 100.0 mg/kg/injection, schedule: Q04DX003 (ip), vehicle: saline with Tween-80
[6] = dose: 200.0 mg/kg/injection, schedule: Q01DX009 (ip), vehicle: saline with Tween-80
[7] = dose: 200.0 mg/kg/injection, schedule: Q04DX003 (ip), vehicle: saline with Tween-80
[8] = dose: 400.0 mg/kg/injection, schedule: Q01DX009 (ip), vehicle: saline with Tween-80
[9] = dose: 400.0 mg/kg/injection, schedule: Q04DX003 (ip), vehicle: saline with Tween-80
[10] = dose: 100.0 mg/kg/injection, schedule: Q01DX009 (ip), vehicle: saline
[11] = dose: 200.0 mg/kg/injection, schedule: Q01DX009 (ip), vehicle: saline
[12] = dose: 400.0 mg/kg/injection, schedule: Q01DX009 (ip), vehicle: saline
[13] = dose: 100.0 mg/kg/injection, schedule: Q01DX001 (ip), vehicle: saline
[14] = dose: 200.0 mg/kg/injection, schedule: Q01DX001 (ip), vehicle: saline
[15] = dose: 400.0 mg/kg/injection, schedule: Q01DX001 (ip), vehicle: saline
[16] = dose: 100.0 mg/kg/injection, schedule: Q01DX009 (ip), vehicle: Klucel (hydroxypropylcellulose) (HPC)
[17] = dose: 100.0 mg/kg/injection, schedule: Q04DX002 (ip), vehicle: Klucel (hydroxypropylcellulose) (HPC)
[18] = dose: 200.0 mg/kg/injection, schedule: Q01DX009 (ip), vehicle: Klucel (hydroxypropylcellulose) (HPC)
[19] = dose: 200.0 mg/kg/injection, schedule: Q04DX002 (ip), vehicle: Klucel (hydroxypropylcellulose) (HPC)
[20] = dose: 400.0 mg/kg/injection, schedule: Q04DX002 (ip), vehicle: Klucel (hydroxypropylcellulose) (HPC)
[21] = dose: 100.0 mg/kg/injection, schedule: Q04DX002 (ip), vehicle: saline with Tween-80
[22] = dose: 200.0 mg/kg/injection, schedule: Q04DX002 (ip), vehicle: saline with Tween-80
[23] = dose: 400.0 mg/kg/injection, schedule: Q04DX002 (ip), vehicle: saline with Tween-80

Measured: T/C

O=C1CCCN1Cl
inactive: [1] 96 % of control | [2] 96 % of control | [3] 96 % of control

NC(=O)CC(NC(=O)OCc1ccccc1)c1nn[nH]n1 (stereo not given)
inactive: [4] 104 % of control | [5] 91 % of control | [6] 106 % of control | [7] 102 % of control | [8] 98 % of control | [9] 91 % of control

CCCCCCCCCC(=O)OCC1OC(=O)C(C)N(C)C(=O)CN(C)C(=O)C2C(=O)CC(C)N2C(=O)C(C(C)C)NC(=O)C1NC(=O)c1c2nc3c(C(=O)NC4C(=O)NC(C(C)C)C(=O)N5C(C)CC(OC(=O)CCCCCCCCC)C5C(=O)N(C)CC(=O)N(C)C(C(C)C)C(=O)OC4C)ccc(C)c3oc-2c(C)c(=O)c1N (stereo not given)
inactive: dose: 0.2 mg/kg/injection, schedule: Q01DX009 (ip), vehicle: Klucel (hydroxypropylcellulose) (HPC) 92 % of control | dose: 0.4 mg/kg/injection, schedule: Q01DX009 (ip), vehicle: Klucel (hydroxypropylcellulose) (HPC) 94 % of control | dose: 0.6 mg/kg/injection, schedule: Q04DX003 (ip), vehicle: Klucel (hydroxypropylcellulose) (HPC) 97 % of control | dose: 0.8 mg/kg/injection, schedule: Q01DX009 (ip), vehicle: Klucel (hydroxypropylcellulose) (HPC) 96 % of control | dose: 1.2 mg/kg/injection, schedule: Q04DX003 (ip), vehicle: Klucel (hydroxypropylcellulose) (HPC) 95 % of control | dose: 1.6 mg/kg/injection, schedule: Q01DX001 (ip), vehicle: Klucel (hydroxypropylcellulose) (HPC) 92 % of control | dose: 1.6 mg/kg/injection, schedule: Q01DX009 (ip), vehicle: Klucel (hydroxypropylcellulose) (HPC) 92 % of control | dose: 2.4 mg/kg/injection, schedule: Q04DX003 (ip), vehicle: Klucel (hydroxypropylcellulose) (HPC) 90 % of control | dose: 3.2 mg/kg/injection, schedule: Q01DX001 (ip), vehicle: Klucel (hydroxypropylcellulose) (HPC) 92 % of control | dose: 3.2 mg/kg/injection, schedule: Q01DX009 (ip), vehicle: Klucel (hydroxypropylcellulose) (HPC) 89 % of control | dose: 4.8 mg/kg/injection, schedule: Q04DX003 (ip), vehicle: Klucel (hydroxypropylcellulose) (HPC) 91 % of control | dose: 6.4 mg/kg/injection, schedule: Q01DX001 (ip), vehicle: Klucel (hydroxypropylcellulose) (HPC) 91 % of control | dose: 9.6 mg/kg/injection, schedule: Q04DX003 (ip), vehicle: Klucel (hydroxypropylcellulose) (HPC) 87 % of control | dose: 12.8 mg/kg/injection, schedule: Q01DX001 (ip), vehicle: Klucel (hydroxypropylcellulose) (HPC) 89 % of control

O=S(=O)(Nc1cc(S(=O)(=O)c2ccccc2)c(NS(=O)(=O)c2ccccc2)c(Cl)c1Cl)c1ccccc1
inactive: dose: 75.0 mg/kg/injection, schedule: Q04DX003 (ip), vehicle: Klucel (hydroxypropylcellulose) (HPC) 103 % of control | dose: 150.0 mg/kg/injection, schedule: Q04DX003 (ip), vehicle: Klucel (hydroxypropylcellulose) (HPC) 92 % of control | dose: 300.0 mg/kg/injection, schedule: Q04DX003 (ip), vehicle: Klucel (hydroxypropylcellulose) (HPC) 95 % of control

CC1=NN(c2ccc(S(=O)(=O)O)cc2)C(=O)/C1=C\c1c(C)[nH]n(-c2ccc(S(=O)(=O)O)cc2)c1=O
inactive: [10] 97 % of control | dose: 100.0 mg/kg/injection, schedule: Q04DX003 (ip), vehicle: saline 91 % of control | [11] 106 % of control | dose: 200.0 mg/kg/injection, schedule: Q04DX003 (ip), vehicle: saline 95 % of control | [12] 92 % of control | dose: 400.0 mg/kg/injection, schedule: Q04DX003 (ip), vehicle: saline 91 % of control

COc1ccc(/C=C(\C#N)c2ccc(C)cc2)cc1OC
inactive: [5] 102 % of control | [7] 100 % of control | [9] 100 % of control

Nc1ncnc2c1ncn2C1OC(CO)C(NC(=O)C(CCCCNC(=O)OCc2ccccc2)NC(=O)OCc2ccccc2)C1O (stereo not given)
inactive: [13] 102 % of control | [14] 100 % of control | [15] 100 % of control

ClCc1nc2ccccc2s1
inactive: [16] 91 % of control | [17] 92 % of control | [18] 98 % of control | [19] 103 % of control | [20] 103 % of control

CCC(Cl)COP(=O)(OCC(Cl)CC)C(OP(=S)(OCC(Cl)CC)OCC(Cl)CC)c1ccc(Cl)c(Cl)c1 (stereo not given)
inactive: dose: 25.0 mg/kg/injection, schedule: Q04DX002 (sc), vehicle: olive oil, sesame oil, peanut oil 123 % of control | dose: 50.0 mg/kg/injection, schedule: Q04DX002 (sc), vehicle: olive oil, sesame oil, peanut oil 108 % of control | dose: 100.0 mg/kg/injection, schedule: Q04DX002 (sc), vehicle: olive oil, sesame oil, peanut oil 118 % of control

O=S(=O)(F)c1ccccc1C[P+](c1ccccc1)(c1ccccc1)c1ccccc1
inactive: dose: 1.56 mg/kg/injection, schedule: Q01DX009 (ip), vehicle: Klucel (hydroxypropylcellulose) (HPC) 110 % of control | dose: 3.12 mg/kg/injection, schedule: Q01DX009 (ip), vehicle: Klucel (hydroxypropylcellulose) (HPC) 118 % of control | dose: 6.25 mg/kg/injection, schedule: Q01DX009 (ip), vehicle: Klucel (hydroxypropylcellulose) (HPC) 117 % of control

COC(=O)c1ccccc1NC(OC)c1cccc([N+](=O)[O-])c1 (stereo not given)
inactive: [1] 90 % of control | [21] 93 % of control and 89 % of control | [5] 92 % of control | [2] 92 % of control | [22] 86 % of control and 90 % of control | [7] 92 % of control | [3] 87 % of control | [23] 87 % of control | [9] 89 % of control

Clc1nc2ccccc2n2nnnc12
inactive: dose: 15.0 mg/kg/injection, schedule: Q04DX003 (ip), vehicle: saline 101 % of control | dose: 30.0 mg/kg/injection, schedule: Q04DX003 (ip), vehicle: saline 98 % of control | dose: 60.0 mg/kg/injection, schedule: Q04DX003 (ip), vehicle: saline 86 % of control

Cc1ccc(NC(=O)OCCSc2ccc(Cl)cc2)c([N+](=O)[O-])c1
inactive: [17] 99 % of control | [19] 99 % of control | [20] 89 % of control

CNC(=S)N(N)c1ccccc1
inactive: [16] 104 % of control | dose: 100.0 mg/kg/injection, schedule: Q04DX003 (ip), vehicle: Klucel (hydroxypropylcellulose) (HPC) 93 % of control | [18] 101 % of control | dose: 200.0 mg/kg/injection, schedule: Q04DX003 (ip), vehicle: Klucel (hydroxypropylcellulose) (HPC) 103 % of control | dose: 400.0 mg/kg/injection, schedule: Q04DX003 (ip), vehicle: Klucel (hydroxypropylcellulose) (HPC) 101 % of control

CCCCCCCCCCCC(=O)NC(=S)Nc1ccc(C(=O)O)cc1
inactive: [1] 103 % of control | [4] 98 % of control and 101 % of control | [21] 102 % of control and 105 % of control | [5] 101 % of control | [2] 102 % of control | [6] 93 % of control and 103 % of control | [22] 100 % of control and 112 % of control | [7] 98 % of control | [3] 96 % of control | [8] 101 % of control and 92 % of control | [23] 103 % of control and 115 % of control | [9] 101 % of control

CC1C[N+](C)(C)NC1=O (stereo not given)
inactive: [13] 98 % of control | [10] 103 % of control | [14] 103 % of control | [11] 107 % of control | [15] 92 % of control | [12] 91 % of control

S=C(NNC(=S)Nc1ccc(Cl)cc1)NNc1ccccc1
inactive: dose: 100.0 mg/kg/injection, schedule: Q04DX003 (ip), vehicle: acetone 97 % of control | dose: 200.0 mg/kg/injection, schedule: Q04DX003 (ip), vehicle: acetone 100 % of control

CCCCCCC(C)O[Si](C)c1ccc(CC)cc1 (stereo not given)
inactive: [5] 99 % of control | [7] 95 % of control | [9] 103 % of control

CC[C@H](CC[C@@H](C)[C@H]1CC[C@H]2[C@@H]3CC=C4C[C@@H](OC(=O)CSC(CC(=O)O)C(=O)O)CC[C@]4(C)[C@H]3CC[C@]12C)C(C)C (stereo not given in full)
inactive: dose: 100.0 mg/kg/injection, schedule: Q01DX001 (ip), vehicle: water 98 % of control | dose: 200.0 mg/kg/injection, schedule: Q01DX001 (ip), vehicle: water 86 % of control | dose: 400.0 mg/kg/injection, schedule: Q01DX001 (ip), vehicle: water 93 % of control
